Experimental data taken from patent publication US20160024071A1, “INHIBITORS OF LRRK2 KINASE ACTIVITY” (ELAN PHARMACEUTICALS, LLC., priority 2013, published 2016).

Molecular target: T1, recombinant GST-LRRK2 (wild-type) (Homo sapiens, UniProt Q5S007)
T1 construct: GST (N); purchased Invitrogen
Experiment: LRRK2 TR-FRET peptide assay (wild-type)
Assay type: biochemical
Settings: 100 μM ATP, 100 nM biotin-LRRKtide, 10 nM kinase, 60 min room temperature
Procedure: Compounds as described herein (compounds of Formula I, e.g., compounds of the above Examples) are tested for their in vitro kinase activities using various LRRK2 (including LRRK2 G2019S mutant) assays. For example, assays were performed in a total volume of 20 μL using the same kinase reaction buffer (50 mM HEPES pH 7.5, 10 mM MgCl2, 1 mM EGTA, 2 mM DTT and 0.01% Tween-20) for wild-type or G2019S mutant LRRK2. Serially diluted compounds (1% DMSO as co-solvent) were pre-incubated with recombinant GST-LRRK2 (wild-type, or G2019S mutant, Invitrogen) for 15 minutes at room temperature in 384-well Corning black plates. Mixtures of ATP and biotin-LRRKtide substrate (biotin-RLGRDKYKTLRQIRQ) were added to the wells at a final concentration of 100 μM ATP and 100 nM substrate, with final kinase concentration of 10 nM. The kinase reactions were carried out at room temperature for 60 minutes, then the reaction was stopped with the addition of 10 μL/well of stop/detection buffer (25 mM HEPES pH 7.5, 66 mM EDTA, 0.8 M KF and 0.1% BSA) that contains streptavidin-XL665 (12.5 nM) and europium-conjugated phospho-specific antibody (2 nM). The plates were read 1 hour later and the time-resolved fluorescence (665 nm to 615 nm ratio) measured using an Envision reader. The inhibition of each well was calculated using the control and background readings for that plate. IC50 values were determined from dose-response curves using eight concentrations from the serial dilution of the test compounds.

T1 sequence (Q5S007 whole entry): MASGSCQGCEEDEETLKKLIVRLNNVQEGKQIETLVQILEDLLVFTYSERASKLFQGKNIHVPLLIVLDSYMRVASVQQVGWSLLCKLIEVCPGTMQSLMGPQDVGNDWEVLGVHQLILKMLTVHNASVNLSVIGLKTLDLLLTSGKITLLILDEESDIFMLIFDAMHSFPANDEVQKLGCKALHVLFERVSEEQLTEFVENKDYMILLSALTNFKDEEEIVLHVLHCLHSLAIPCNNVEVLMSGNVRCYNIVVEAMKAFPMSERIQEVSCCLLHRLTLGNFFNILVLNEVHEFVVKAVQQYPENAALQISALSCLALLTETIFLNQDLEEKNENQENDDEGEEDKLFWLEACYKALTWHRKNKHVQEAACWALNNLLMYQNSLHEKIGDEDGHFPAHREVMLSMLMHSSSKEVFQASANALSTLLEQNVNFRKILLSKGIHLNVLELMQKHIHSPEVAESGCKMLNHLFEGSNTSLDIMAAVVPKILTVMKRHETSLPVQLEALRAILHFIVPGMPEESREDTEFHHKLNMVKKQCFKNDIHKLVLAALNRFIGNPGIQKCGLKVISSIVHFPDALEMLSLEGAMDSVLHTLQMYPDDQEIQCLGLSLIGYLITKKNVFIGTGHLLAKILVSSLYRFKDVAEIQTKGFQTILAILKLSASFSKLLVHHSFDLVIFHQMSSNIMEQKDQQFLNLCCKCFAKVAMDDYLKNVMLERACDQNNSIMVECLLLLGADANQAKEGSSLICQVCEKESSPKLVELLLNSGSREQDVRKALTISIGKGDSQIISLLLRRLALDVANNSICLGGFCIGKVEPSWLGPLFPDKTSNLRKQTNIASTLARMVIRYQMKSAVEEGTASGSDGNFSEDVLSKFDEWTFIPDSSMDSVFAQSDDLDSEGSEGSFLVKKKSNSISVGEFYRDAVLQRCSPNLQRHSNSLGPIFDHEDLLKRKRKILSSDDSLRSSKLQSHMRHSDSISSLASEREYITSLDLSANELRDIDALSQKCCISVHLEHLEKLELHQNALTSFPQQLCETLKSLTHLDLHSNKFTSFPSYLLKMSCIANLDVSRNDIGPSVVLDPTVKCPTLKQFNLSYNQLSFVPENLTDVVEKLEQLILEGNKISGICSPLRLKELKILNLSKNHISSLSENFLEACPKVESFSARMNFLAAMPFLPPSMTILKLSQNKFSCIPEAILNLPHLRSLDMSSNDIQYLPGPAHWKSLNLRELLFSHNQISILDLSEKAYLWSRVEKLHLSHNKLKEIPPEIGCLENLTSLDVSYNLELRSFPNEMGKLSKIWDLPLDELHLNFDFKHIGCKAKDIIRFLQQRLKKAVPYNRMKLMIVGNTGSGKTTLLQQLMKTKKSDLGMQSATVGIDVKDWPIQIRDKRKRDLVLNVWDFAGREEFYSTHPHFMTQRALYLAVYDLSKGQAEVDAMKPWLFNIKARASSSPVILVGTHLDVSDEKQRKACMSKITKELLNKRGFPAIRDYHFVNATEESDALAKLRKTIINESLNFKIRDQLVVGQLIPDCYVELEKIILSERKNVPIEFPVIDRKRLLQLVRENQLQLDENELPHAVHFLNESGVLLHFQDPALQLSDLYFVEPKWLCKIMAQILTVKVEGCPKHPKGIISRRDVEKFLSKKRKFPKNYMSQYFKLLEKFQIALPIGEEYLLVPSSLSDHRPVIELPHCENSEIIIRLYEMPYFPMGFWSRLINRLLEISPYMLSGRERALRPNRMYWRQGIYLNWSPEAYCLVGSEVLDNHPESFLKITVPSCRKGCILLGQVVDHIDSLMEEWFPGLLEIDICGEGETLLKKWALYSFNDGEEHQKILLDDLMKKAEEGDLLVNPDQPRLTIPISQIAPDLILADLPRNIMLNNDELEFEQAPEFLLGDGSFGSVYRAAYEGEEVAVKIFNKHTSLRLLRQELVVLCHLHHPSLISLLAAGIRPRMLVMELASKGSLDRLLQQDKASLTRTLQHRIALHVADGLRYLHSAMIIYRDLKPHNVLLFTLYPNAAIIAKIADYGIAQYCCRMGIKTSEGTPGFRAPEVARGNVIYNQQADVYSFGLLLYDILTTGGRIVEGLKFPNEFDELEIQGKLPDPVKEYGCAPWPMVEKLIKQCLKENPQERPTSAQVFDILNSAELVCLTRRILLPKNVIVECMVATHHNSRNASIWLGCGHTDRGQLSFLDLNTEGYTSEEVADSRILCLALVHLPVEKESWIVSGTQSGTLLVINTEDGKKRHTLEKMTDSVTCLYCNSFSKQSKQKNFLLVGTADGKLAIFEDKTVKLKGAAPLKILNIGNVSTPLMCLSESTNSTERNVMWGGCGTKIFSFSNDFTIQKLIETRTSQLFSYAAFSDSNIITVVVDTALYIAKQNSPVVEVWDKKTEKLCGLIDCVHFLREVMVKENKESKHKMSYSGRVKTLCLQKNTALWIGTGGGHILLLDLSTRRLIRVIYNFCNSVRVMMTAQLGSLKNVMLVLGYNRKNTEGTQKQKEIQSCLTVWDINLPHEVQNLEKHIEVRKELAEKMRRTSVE

IC50 [nM]	Structure (SMILES)
0.9	O=C(NN=C1SCC(=O)N1c1ccccc1)c1ccc(Cl)s1 [Compound 1-6, 5-chloro-N′-(4-oxo-3-phenylthiazolidin-2-ylidene)thiophene-2-carbohydrazide]
11	CC1SC(=NNC(=O)c2ccc(Cl)s2)N(c2ccccc2)C1=O (stereo not drawn) [Compound 1-7, 5-chloro-N′-(5-methyl-4-oxo-3-phenylthiazolidin-2-ylidene)thiophene-2-carbohydrazide]
210	CC(C)C1SC(=NNC(=O)c2ccc(Cl)s2)N(c2ccccc2)C1=O (stereo not drawn) [Compound 1-13, 5-chloro-N′-(5-isopropyl-4-oxo-3-phenylthiazolidin-2-ylidene)thiophene-2-carbohydrazide]
330	CC1(C)SC(=NNC(=O)c2ccc(Cl)s2)N(c2ccccc2)C1=O [Compound 1-14, 5-chloro-N′-(5,5-dimethyl-4-oxo-3-phenylthiazolidin-2-ylidene)thiophene-2-carbohydrazide]
13	O=C(NN=C1SCC(=O)N1Cc1ccccc1)c1ccc(Cl)s1 [Compound 1-15, N′-(3-benzyl-4-oxothiazolidin-2-ylidene)-5-chlorothiophene-2-carbohydrazide]
51	O=C(NN=C1SCCN1c1ccccc1)c1ccc(Cl)s1 [Compound 2-19, 5-chloro-N′-(3-phenylthiazolidin-2-ylidene)thiophene-2-carbohydrazide]

Further lines, the compound ahead of its results:

Structure (SMILES)	IC50 [nM]
O=C(NN=C1SCC(=O)N1c1cccc(F)c1)c1ccc(Cl)s1 [Compound 1-8, 5-chloro-N′-(3-(3-fluorophenyl)-4-oxothiazolidin-2-ylidene)thiophene-2-carbohydrazide]	1.1
COc1ccccc1N1C(=O)CSC1=NNC(=O)c1ccc(Cl)s1 [Compound 1-9, 5-chloro-N′-(3-(2-methoxyphenyl)-4-oxothiazolidin-2-ylidene)thiophene-2-carbohydrazide]	1170
O=C(NN=C1SCC(=O)N1c1ccccc1F)c1ccc(Cl)s1 [Compound 1-10, 5-chloro-N′-(3-(2-fluorophenyl)-4-oxothiazolidin-2-ylidene)thiophene-2-carbohydrazide]	0.5
O=C(NN=C1SCC(=O)N1c1ccc(F)cc1)c1ccc(Cl)s1 [Compound 1-11, 5-chloro-N′-(3-(4-fluorophenyl)-4-oxothiazolidin-2-ylidene)thiophene-2-carbohydrazide]	0.9
O=C(NN=C1SCC(=O)N1c1ccc(F)cc1F)c1ccc(Cl)s1 [Compound 1-12, 5-chloro-N′-(3-(2,4-difluorophenyl)-4-oxothiazolidin-2-ylidene)thiophene-2-carbohydrazide]	0.5
O=C(NN=C1SCC(=O)N1c1cccc(C(F)(F)F)c1)c1ccc(Cl)s1 [Compound 1-16, 5-chloro-N′-(4-oxo-3-(3-(trifluoromethyl)phenyl)thiazolidin-2-ylidene)thiophene-2-carbohydrazide]	111
